From PubChem BioAssay (NCI)
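Following 48 hours of exposure in 96-well plates, responses at five concentrations were used to interpolate endpoints linearly. Here, GI50 denotes the concentration required for 50% inhibition of growth. TGI: concentration producing complete growth inhibition.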

Experiments:
Test in all cases: NCI-60 cell line screen, 48 h
CCRF-CEM leukemia = system: CCRF-CEM leukemia
COLO 205 colon = system: COLO 205 colon
HCT-116 colon = system: HCT-116 colon
HL-60(TB) leukemia = system: HL-60(TB) leukemia
KM12 colon = system: KM12 colon
NCI-H522 lung = system: NCI-H522 lung
SK-MEL-5 melanoma = system: SK-MEL-5 melanoma
SNB-19 CNS = system: SNB-19 CNS
SNB-75 CNS = system: SNB-75 CNS
MDA-MB-435 = system: MDA-MB-435

| SMILES | TGI (CCRF-CEM leukemia) [µM] | TGI (COLO 205 colon) [µM] | TGI (HCT-116 colon) [µM] | TGI (HL-60(TB) leukemia) [µM] | TGI (KM12 colon) [µM] | TGI (NCI-H522 lung) [µM] | TGI (SK-MEL-5 melanoma) [µM] | TGI (SNB-19 CNS) [µM] | TGI (SNB-75 CNS) [µM] | GI50 (CCRF-CEM leukemia) [µM] | GI50 (COLO 205 colon) [µM] | GI50 (KM12 colon) [µM] | GI50 (MDA-MB-435) [µM] | TGI (MDA-MB-435) [µM] | GI50 (NCI-H522 lung) [µM] | GI50 (SK-MEL-5 melanoma) [µM] | GI50 (SNB-19 CNS) [µM] | GI50 (HCT-116 colon) [µM] | GI50 (SNB-75 CNS) [µM] |
| --- | --- | --- | --- | --- | --- | --- | --- | --- | --- | --- | --- | --- | --- | --- | --- | --- | --- | --- | --- |
| COC1=CC(=O)C2C(C1=O)[C@@H]1c3ccccc3OC(C)(C)[C@H]21 (stereo partly drawn) | 65.1 | 35.1 | 29.7 | 33.8 | > 100 | 27.7 | 74 | 97.7 | > 100 | – | – | – | – | – | – | – | – | – | – |
| COc1cccc2c1C(=O)c1c(O)c3c(c(O)c1C2=O)C[C@@](O)(C(C)=O)C[C@@H]3OC1CC([N+]([O-])(Cc2ccccc2)Cc2ccccc2)C(O)C(C)O1 (stereo partly drawn) | – | – | – | – | 2.9 | 2.68 | 2.71 | 15.8 | 4.25 | – | – | – | – | – | – | – | – | – | – |
| CC(C)(CN1CCOCC1)C(=O)/C=C/c1ccc(/C=C/C(=O)C(C)(C)CN2CCOCC2)cc1 | 4.77 | 3.01 | 1.62 | 3.92 | 2.92 | 0.928 | 3.23 | – | 4.44 | – | – | – | – | – | – | – | – | – | – |
| COc1cc(OC)cc(-c2nc3sccn3c2/C=N/N=C(N)N)c1 | 19.5 | 15.8 | – | – | 10.3 | > 50 | 15.2 | 19.3 | – | 10.9 | 3.11 | 3.13 | 8.71 | 16.1 | 15.4 | 8.34 | 9.29 | – | – |
| S=c1nc(C(c2ccccc2)c2ccccc2)[nH][nH]1 | > 100 | > 100 | > 100 | > 100 | > 100 | > 100 | > 100 | > 100 | – | – | – | – | – | – | – | – | – | – | – |
| Cn1cnc([N+](=O)[O-])c1Sc1nnnn1C | 25 | 25.3 | 28 | – | > 100 | 20.5 | 31.6 | > 100 | 89.6 | – | – | – | – | – | – | – | – | – | – |
| CCC[CH2][Sn]([CH2]CCC)([CH2]CCC)[O]C(=O)C(OC(C)=O)c1ccccc1 (stereo not drawn) | – | 0.321 | 0.276 | – | 0.23 | 0.287 | 0.28 | 0.322 | 0.424 | – | 0.18 | 0.109 | – | – | 0.144 | 0.147 | 0.176 | 0.136 | 0.134 |
| CC(N)Cc1ccc(Cl)cc1 (stereo not drawn) | > 100 | > 100 | > 100 | > 100 | > 100 | > 100 | > 100 | > 100 | > 100 | – | – | – | – | – | – | – | – | – | – |
| O=c1/c(=C/c2c(O)ccc3ccccc23)sc2nc3ccccc3n12 | > 100 | > 100 | > 100 | > 100 | > 100 | > 100 | > 100 | > 100 | > 100 | – | – | – | – | – | – | – | – | – | – |
| COc1cc(O)c(C(=O)CC(C)=O)c(OC)c1 | > 100 | > 100 | > 100 | > 100 | > 100 | > 100 | > 100 | > 100 | > 100 | – | – | – | – | – | – | – | – | – | – |
| COc1ccc2c3c(c(C(=O)O)oc13)CCC2 | > 100 | > 100 | > 100 | > 100 | > 100 | > 100 | > 100 | > 100 | > 100 | – | – | – | – | – | – | – | – | – | – |
| NCCOCn1cc(Cc2cccc(OCc3ccccc3)c2)c(=O)[nH]c1=O | > 100 | > 100 | > 100 | > 100 | > 100 | – | > 100 | > 100 | > 100 | – | – | – | – | – | – | – | – | – | – |
| Cc1ccc(NC(=O)C(=O)C(C(=O)c2ccc3ccccc3c2)C2OC(=O)c3ccccc32)c(C)c1 (stereo not drawn) | 78.1 | 25.2 | 20.1 | – | 45.5 | 31.3 | 24 | – | 47.3 | – | – | – | – | – | – | – | – | – | – |
| O=C1OC(c2ccccc2)(c2ccccc2)c2ccc3ccc(F)cc3c21 | > 100 | > 100 | > 100 | > 100 | > 100 | > 100 | > 100 | > 100 | > 100 | – | – | – | – | – | – | – | – | – | – |
| CSC(=Nc1ccccc1Cl)NC(=O)c1ccc(Br)cc1 | – | > 100 | > 100 | > 100 | > 100 | > 100 | – | > 100 | – | – | – | – | – | – | – | – | – | – | – |
| O=C(N/C(=C\c1c(O)ccc2ccccc12)c1nc2ccccc2[nH]1)c1ccccc1 | > 100 | > 100 | > 100 | – | > 100 | > 100 | > 100 | > 100 | 45.6 | – | – | – | – | – | – | – | – | – | – |
| CCO/C(CCn1[nH]c(=O)c(Cl)c(Cl)c1=O)=N\NC(=O)C(=O)NN | > 100 | > 100 | – | > 100 | > 100 | > 100 | > 100 | > 100 | > 100 | – | – | – | – | – | – | – | – | – | – |
